Laboratory results reported in ChEMBL document CHEMBL1139991, “[1,3]Diazaheterofused isoindolol derivatives displaying anxiolytic-like effects on mice” (2007).

Tests used:
Mus musculus [1] = test: Anxiolytic effect in Albino ICR mouse assessed as time spent on open arms of elevated plus-maze test at 15 mg/ kg, ip; type: functional; conditions: route intraperitoneal
Mus musculus [2] = test: Anxiolytic effect in Albino ICR mouse assessed as number of entries in open arms of elevated plus-maze test at 15 mg/kg, ip; type: functional; conditions: route intraperitoneal

| SMILES | Activity (Mus musculus [1]) [%] | Activity (Mus musculus [2]) [%] |
| --- | --- | --- |
| CSc1ccc(CC2(O)c3ccccc3C3=NCCN32)cc1 (configuration not stated) | 47.8 | 36.3 |
| CSc1ccc(CC2(O)c3ccccc3C3=NCCCN32)cc1 (configuration not stated) | 73.8 | 66 |
| C[S+]([O-])c1ccc(CC2(O)c3ccccc3C3=NCCCN32)cc1 (configuration not stated) | 16.3 | 27.6 |
| C[S+]([O-])c1ccc(CC2(O)c3ccccc3C3=NCCN32)cc1 (configuration not stated) | 44 | 25.3 |
| CS(=O)(=O)c1ccc(CC2(O)c3ccccc3C3=NCCN32)cc1 (configuration not stated) | 44 | 27.3 |
| COc1ccc(CC2(O)c3ccccc3C3=NCCCCN32)cc1 (configuration not stated) | -9 | -24.4 |
| OC1(Cc2ccc(F)cc2)c2ccccc2C2=NCCN21 (configuration not stated) | 22.9 | 5.5 |
| OC1(Cc2ccc(F)cc2)c2ccccc2C2=NCCCN21 (configuration not stated) | 44.7 | 24.7 |
| O=[N+]([O-])c1ccc(CC2(O)c3ccccc3C3=NCCCN32)cc1 (configuration not stated) | 59 | 44.2 |
| OC1(Cc2ccc(Cl)cc2)c2ccccc2C2=NCCN21 (configuration not stated) | 62.6 | 41.9 |
| OC1(Cc2ccc(Cl)cc2)c2ccccc2C2=NCCCN21 (configuration not stated) | 62.6 | 47.4 |
| OC1(Cc2ccc(F)cc2)c2ccccc2C2=NCCCCN21 (configuration not stated) | 33.5 | 36.3 |
| OC1(Cc2ccc(Cl)cc2)c2ccccc2C2=NCCCCN21 (configuration not stated) | 42.7 | 41 |
| CS(=O)(=O)c1ccc(CC2(O)c3ccccc3C3=NCCCN32)cc1 (configuration not stated) | 13.9 | -7.3 |
| O=[N+]([O-])c1ccc(CC2(O)c3ccccc3C3=NCCN32)cc1 (configuration not stated) | 36.1 | 33.1 |
| COc1cc(CC2(O)c3ccccc3C3=NCCCN32)cc(OC)c1OC (configuration not stated) | 44.2 | 46.8 |
| OC1(Cc2ccc3c(c2)OCO3)c2ccccc2C2=NCCCN21 (configuration not stated) | 48.7 | 45.9 |
| COc1ccc(CC2(O)c3ccccc3C3=NCCN32)cc1 (configuration not stated) | 48.9 | 34.6 |
| OC1(Cc2ccc3c(c2)OCO3)c2ccccc2C2=NCCN21 (configuration not stated) | 51.3 | 44.8 |
| COc1ccc(CC2(O)c3ccccc3C3=NCCCN32)cc1 (configuration not stated) | 51.8 | 60.2 |
| COc1cc(CC2(O)c3ccccc3C3=NCCN32)cc(OC)c1OC (configuration not stated) | -7.9 | -16 |
